Test results reported in patent publication US20110166112A1, “METHOD FOR STIMULATING PLATELET PRODUCTION” (Eisai, Inc., priority 2009, published 2011).

Test system: subjects with chronic idiopathic thrombocytopenic purpura (ITP)
Test: Phase 2 28-day study of E5501 tablets: safety and tolerability (TEAEs, discontinuations)
Format: in vivo, human
Conditions: for Blood and lymphatic system disorders / Cardiac disorders / Eye disorders / Gastritis haemorrhagic / Gastrointestinal disorders / Infections and infestations / Myocardial infarction / Nervous system disorders / Pneumonia / Retinal artery occlusion / Thrombocytopenia / Transient ischaemic attack: serious TEAE
Procedure: This was a phase 2, multi-center, double-blind, randomized, placebo-controlled, dose-ranging, parallel group study of E5501 tablets, used in the treatment of subjects with chronic idiopathic thrombocytopenic purpura (ITP) refractory to or relapsed after at least one prior ITP therapy. Subjects who met all entry criteria were randomly assigned in a 3:3:3:3:1 ratio to one of the following five treatment groups dosed daily for 28 days: 1) E5501 2.5 mg; 2) E5501 5 mg; 3) E5501 10 mg; 4) E5501 20 mg; or 5) placebo (PBO). Each E5501 dosing group consisted of 15 subjects while the PBO group consisted of 5 subjects. All study subjects were evaluated weekly (days 7, 14, 21 and 28) for safety and efficacy while receiving study treatment, with a final assessment for safety and effectiveness performed 4 weeks after the last study dose (day 56) unless the subject entered the follow-on study. Platelet counts were also measured on day 3 and day 5.
The safety and tolerability parameters included adverse events, clinical laboratory parameters, study drug exposure, vital electrocardiograms, concomitant medications, serum pregnancy tests for women of childbearing potential and physical examinations including height, weight, general appearance and recording of vital signs.
The populations of interest were defined as follows: • The randomized population included all subjects who were randomized into the study. • The safety population included all randomized subjects who receive at least one dose of study drug and have at least one safety assessment. • The pharmacokinetic (PK) population included all subjects who provided blood sample for analysis of E5501. A subject was included in this population if the subject had at least one blood draw for PK assessment. • The full analysis set (FAS) included all subjects who provided adequate data to derive at least one efficacy assessment. […] The day 28 visit window was defined to be from day 25, to last dose day+1, inclusively; • Other major protocol violations that impacted the platelet endpoint evaluation. Results from Planned Analyses
Subject Disposition. Sixty four subjects were randomly assigned to treatment in this study. All treated subjects provided adequate efficacy data and therefore were included in the FAS population. The number and percentage of subjects who completed treatment or discontinued prematurely were summarized by treatment groups as shown in Table 1. In addition, the number and percentage of subjects who withdrew were summarized by reason for discontinuation by treatment group. The majority (>85%) of subjects completed the study across all dose groups for the FAS, randomized, and safety populations. Seven subjects who discontinued the study early all were from E5501 dose groups: two subjects in each of 2.5, 10 and 20 mg dose groups and one subject in the 5 mg dose group.

[1] = Pharmacokinetic Population, 2.5 mg
[2] = Pharmacokinetic Population, 5 mg
[3] = Pharmacokinetic Population, 10 mg
[4] = Pharmacokinetic Population, 20 mg
[5] = Pharmacokinetic Population, Total E5501
[6] = randomized/safety/FAS, Total E5501

## O=C(Nc1nc(-c2cc(Cl)cs2)c(N2CCN(C3CCCCC3)CC2)s1)c1cnc(N2CCC(C(=O)O)CC2)c(Cl)c1 [E5501, 1-(3-chloro-5-{[4-(4-chlorothiophen-2-yl)-5-(4-cyclohexylpiperazin-1-yl)thiazol-2-yl]carbamoyl}pyridine-2-yl)piperidine-4-carboxylic acid]
  diarrhea, nausea and vomiting, total events: 12 events
  subjects whose platelet count decreased to below that of baseline upon discontinuation of E5501: 3 subjects
  subjects with diarrhea, nausea and vomiting events: 7 subjects
  tolerability and safety profile: well tolerated and had a favorable safety profile
2.5 mg
  Death: 0 n (%)
  Serious TEAEs (Any Serious TEAE): 2 (13.3) n (%)
  TEAE Leading to Study Treatment Dose Interruption: 0 n (%)
  TEAE Leading to Study Treatment Withdrawal: 0 n (%)
  TEAEs: 12 (80.0) n (%)
  Treatment-Related Serious TEAEs: 0 n (%)
  Treatment-Related TEAEs: 6 (40.0) n (%)
  number of serious TEAEs: 2
  Blood and lymphatic system disorders: 1 (6.7) n (%)
  Cardiac disorders: 0 n (%)
  Eye disorders: 0 n (%)
  Gastritis haemorrhagic: 1 (6.7) n (%)
  Gastrointestinal disorders: 1 (6.7) n (%)
  Infections and infestations: 0 n (%)
  Myocardial infarction: 0 n (%)
  Nervous system disorders: 0 n (%)
  Pneumonia: 0 n (%)
  Retinal artery occlusion: 0 n (%)
  Thrombocytopenia: 1 (6.7) n (%)
  Transient ischaemic attack: 0 n (%)
5 mg
  Death: 0 n (%)
  Serious TEAEs (Any Serious TEAE): 0 n (%)
  TEAE Leading to Study Treatment Dose Interruption: 1 (6.7) n (%)
  TEAE Leading to Study Treatment Withdrawal: 1 (6.7) n (%)
  TEAEs: 13 (86.7) n (%)
  Treatment-Related Serious TEAEs: 0 n (%)
  Treatment-Related TEAEs: 11 (73.3) n (%)
  Blood and lymphatic system disorders: 0 n (%)
  Cardiac disorders: 0 n (%)
  Eye disorders: 0 n (%)
  Gastritis haemorrhagic: 0 n (%)
  Gastrointestinal disorders: 0 n (%)
  Infections and infestations: 0 n (%)
  Myocardial infarction: 0 n (%)
  Nervous system disorders: 0 n (%)
  Pneumonia: 0 n (%)
  Retinal artery occlusion: 0 n (%)
  Thrombocytopenia: 0 n (%)
  Transient ischaemic attack: 0 n (%)
10 mg
  Death: 0 n (%)
  Serious TEAEs (Any Serious TEAE): 1 (7.1) n (%)
  TEAE Leading to Study Treatment Dose Interruption: 0 n (%)
  TEAE Leading to Study Treatment Withdrawal: 1 (7.1) n (%)
  TEAEs: 11 (78.6) n (%)
  Treatment-Related Serious TEAEs: 1 (7.1) n (%)
  Treatment-Related TEAEs: 8 (57.1) n (%)
  number of serious TEAEs: 4
  Blood and lymphatic system disorders: 0 n (%)
  Cardiac disorders: 1 (7.1) n (%)
  Eye disorders: 1 (7.1) n (%)
  Gastritis haemorrhagic: 0 n (%)
  Gastrointestinal disorders: 0 n (%)
  Infections and infestations: 1 (7.1) n (%)
  Myocardial infarction: 1 (7.1) n (%)
  Nervous system disorders: 1 (7.1) n (%)
  Pneumonia: 1 (7.1) n (%)
  Retinal artery occlusion: 1 (7.1) n (%)
  Thrombocytopenia: 0 n (%)
  Transient ischaemic attack: 1 (7.1) n (%)
20 mg
  Death: 0 n (%)
  Serious TEAEs (Any Serious TEAE): 0 n (%)
  TEAE Leading to Study Treatment Dose Interruption: 2 (13.3) n (%)
  TEAE Leading to Study Treatment Withdrawal: 2 (13.3) n (%)
  TEAEs: 14 (93.3) n (%)
  Treatment-Related Serious TEAEs: 0 n (%)
  Treatment-Related TEAEs: 10 (66.7) n (%)
  subjects who withdrew due to excessively increased platelet counts (≧500,000/mm^3): 2 subjects
  Blood and lymphatic system disorders: 0 n (%)
  Cardiac disorders: 0 n (%)
  Eye disorders: 0 n (%)
  Gastritis haemorrhagic: 0 n (%)
  Gastrointestinal disorders: 0 n (%)
  Infections and infestations: 0 n (%)
  Myocardial infarction: 0 n (%)
  Nervous system disorders: 0 n (%)
  Pneumonia: 0 n (%)
  Retinal artery occlusion: 0 n (%)
  Thrombocytopenia: 0 n (%)
  Transient ischaemic attack: 0 n (%)
[1]
  Discontinued study, primary reason Adverse Event or SAE: 0 n (%)
  Discontinued study, primary reason Platelet Count Increase to ≧500 K/mm^3: 0 n (%)
[2]
  Discontinued study, primary reason Adverse Event or SAE: 1 (6.7) n (%)
  Discontinued study, primary reason Platelet Count Increase to ≧500 K/mm^3: 0 n (%)
[3]
  Discontinued study, primary reason Adverse Event or SAE: 1 (7.1) n (%)
  Discontinued study, primary reason Platelet Count Increase to ≧500 K/mm^3: 0 n (%)
[4]
  Discontinued study, primary reason Adverse Event or SAE: 0 n (%)
  Discontinued study, primary reason Platelet Count Increase to ≧500 K/mm^3: 2 (13.3) n (%)
[5]
  Discontinued study, primary reason Adverse Event or SAE: 2 (3.4) n (%)
  Discontinued study, primary reason Platelet Count Increase to ≧500 K/mm^3: 2 (3.4) n (%)
TEAE, 2.5 mg
  Abdominal pain: 0 n (%)
  Diarrhoea: 1 (6.7) n (%)
  Ecchymosis: 0 n (%)
  Epistaxis: 4 (26.7) n (%)
  Fatigue: 2 (13.3) n (%)
  Headache: 4 (26.7) n (%)
  Migraine: 0 n (%)
  Nausea: 0 n (%)
  Pain in extremity: 0 n (%)
  Petechiae: 0 n (%)
  Platelet count increased: 0 n (%)
  Upper respiratory tract infection: 1 (6.7) n (%)
  Vomiting: 1 (6.7) n (%)
TEAE, 5 mg
  Abdominal pain: 2 (13.3) n (%)
  Diarrhoea: 2 (13.3) n (%)
  Ecchymosis: 0 n (%)
  Epistaxis: 2 (13.3) n (%)
  Fatigue: 4 (26.7) n (%)
  Headache: 3 (20.0) n (%)
  Migraine: 0 n (%)
  Nausea: 0 n (%)
  Pain in extremity: 2 (13.3) n (%)
  Petechiae: 0 n (%)
  Platelet count increased: 0 n (%)
  Upper respiratory tract infection: 0 n (%)
  Vomiting: 0 n (%)
TEAE, 10 mg
  Abdominal pain: 0 n (%)
  Diarrhoea: 0 n (%)
  Ecchymosis: 3 (21.4) n (%)
  Epistaxis: 1 (7.1) n (%)
  Fatigue: 4 (28.6) n (%)
  Headache: 1 (7.1) n (%)
  Migraine: 0 n (%)
  Nausea: 2 (14.3) n (%)
  Pain in extremity: 0 n (%)
  Petechiae: 0 n (%)
  Platelet count increased: 0 n (%)
  Upper respiratory tract infection: 2 (14.3) n (%)
  Vomiting: 1 (7.1) n (%)
TEAE, 20 mg
  Abdominal pain: 0 n (%)
  Diarrhoea: 2 (13.3) n (%)
  Ecchymosis: 0 n (%)
  Epistaxis: 2 (13.3) n (%)
  Fatigue: 2 (13.3) n (%)
  Headache: 4 (26.7) n (%)
  Migraine: 2 (13.3) n (%)
  Nausea: 1 (6.7) n (%)
  Pain in extremity: 1 (6.7) n (%)
  Petechiae: 2 (13.3) n (%)
  Platelet count increased: 4 (26.7) n (%)
  Upper respiratory tract infection: 0 n (%)
  Vomiting: 2 (13.3) n (%)
TEAE, Total E5501
  Abdominal pain: 2 (3.4) n (%)
  Diarrhoea: 5 (8.5) n (%)
  Ecchymosis: 3 (5.1) n (%)
  Epistaxis: 9 (15.3) n (%)
  Fatigue: 12 (20.3) n (%)
  Headache: 12 (20.3) n (%)
  Migraine: 2 (3.4) n (%)
  Nausea: 3 (5.1) n (%)
  Pain in extremity: 3 (5.1) n (%)
  Petechiae: 2 (3.4) n (%)
  Platelet count increased: 4 (6.8) n (%)
  Upper respiratory tract infection: 3 (5.1) n (%)
  Vomiting: 4 (6.8) n (%)
Total E5501
  Death: 0 n (%)
  Serious TEAEs (Any Serious TEAE): 3 (5.1) n (%)
  TEAE Leading to Study Treatment Dose Interruption: 3 (5.1) n (%)
  TEAE Leading to Study Treatment Withdrawal: 4 (6.8) n (%)
  TEAEs: 50 (84.7) n (%)
  Treatment-Related Serious TEAEs: 1 (1.7) n (%)
  Treatment-Related TEAEs: 35 (59.3) n (%)
  Blood and lymphatic system disorders: 1 (1.7) n (%)
  Cardiac disorders: 1 (1.7) n (%)
  Eye disorders: 1 (1.7) n (%)
  Gastritis haemorrhagic: 1 (1.7) n (%)
  Gastrointestinal disorders: 1 (1.7) n (%)
  Infections and infestations: 1 (1.7) n (%)
  Myocardial infarction: 1 (1.7) n (%)
  Nervous system disorders: 1 (1.7) n (%)
  Pneumonia: 1 (1.7) n (%)
  Retinal artery occlusion: 1 (1.7) n (%)
  Thrombocytopenia: 1 (1.7) n (%)
  Transient ischaemic attack: 1 (1.7) n (%)
All E5501
  TEAE leading to study treatment interruption: 3 cases
  TEAE leading to withdrawal of study treatment: 4 cases
  subjects with a TEAE leading to study drug withdrawal: 6.8%
All E5501-treated subjects
  Epistaxis: 15.3%
  Fatigue: 20.3%
  Headache: 20.3%
  subjects who experienced a treatment emergent adverse event (TEAE): 84.7%
  subjects with TEAE possibly or probably related to E5501: 59.3%
One for each of the 5 and 10 mg dose groups
  subjects who withdrew due to an AE: two
overall
  number of serious TEAEs: 6
randomized/safety/FAS, 2.5 mg
  Discontinued study, primary reason Adverse Event or SAE: 0 n (%)
  Discontinued study, primary reason Platelet Count Increase to ≧500 K/mm^3: 0 n (%)
randomized/safety/FAS, 5 mg
  Discontinued study, primary reason Adverse Event or SAE: 1 (6.7) n (%)
  Discontinued study, primary reason Platelet Count Increase to ≧500 K/mm^3: 0 n (%)
randomized/safety/FAS, 10 mg
  Discontinued study, primary reason Adverse Event or SAE: 1 (7.1) n (%)
  Discontinued study, primary reason Platelet Count Increase to ≧500 K/mm^3: 0 n (%)
randomized/safety/FAS, 20 mg
  Discontinued study, primary reason Adverse Event or SAE: 0 n (%)
  Discontinued study, primary reason Platelet Count Increase to ≧500 K/mm^3: 2 (13.3) n (%)
[6]
  Discontinued study, primary reason Adverse Event or SAE: 2 (3.4) n (%)
  Discontinued study, primary reason Platelet Count Increase to ≧500 K/mm^3: 2 (3.4) n (%)
